Results: US7923461B2, “TNF-α production inhibitors” (Santen Pharmaceutical Co., Ltd., priority 2000, dated 2011)
Structures can show the parent of a compound that is named as a salt.

Assays:
TNF-α production = assay: Inhibitory effects on TNF-α production induced by lipopolysaccharide (LPS) stimulation, in vivo test; design: species or system rat; settings: female rats, plasma TNF-α (ELISA) two hours after LPS; for inhibition in vivo at 10 mg/kg / inhibition in vivo at 3 mg/kg: Rattus norvegicus, 2 h, read-out: Inhibition rate (%) of TNF-α production; for inhibition in vivo at 10 mg/kg: oral administration of 10 mg/kg immediately after LPS to footpad; for inhibition in vivo at 3 mg/kg / Inhibition rate (%) of TNF-α production: oral administration of 3 mg/kg immediately after LPS to footpad
Procedure: Inhibitory effects on TNF-α production induced by lipopolysaccharide (LPS) stimulation were studied by in vivo tests according to the method of Tsuji et al. (Inflamm res. 46 (1997) 193-198).
Female rats (five per group), body weight of about 200 g, about eight weeks old, were used as test animals. LPS from Salmonella was dissolved in physiological saline to prepare an LPS solution (1 mg/ml). Each test substance was dissolved or uniformly suspended in a 1% methylcellulose solution to give test substance-preparation liquids.
The above-mentioned LPS solution (0.5 ml/kg) was administered to a footpad of the rat. Immediately after the LPS administration, the test substance-preparation liquid (containing 10 mg/kg or 3 mg/kg test substance) was orally administered. Two hours after the LPS administration, blood was collected from abdominal aorta and was centrifuged at 4° C. and 3000 rpm for ten minutes. TNF-α levels in the obtained plasma were measured with a rat TNF-α-specific ELISA kit. TNF-α was not observed in the plasma with respect to an LPS-non-administered group (control).
Inhibition rates of TNF-α production of the test substances were determined by the following equation. Inhibition rate (%)=[(A−B)/A]×100 A: TNF-α level in plasma of test substance-nonadministered group B: TNF-α level in plasma of test substance-administered group (Results)

Question: Which results are given for `CC(CNC(=O)N(CCN(C)C(=O)OC(C)(C)C)CCC12CC3CC(CC(C3)C1)C2)Cc1ccncc1` (single isomer, unassigned; (+)) [Compound No. 1-139, (+)-1-[2-(1-Adamantyl)ethyl]-1-[2-[N-(t-butoxycarbonyl)-N-methylamino]ethyl]-3-[2-methyl-3-(4-pyridyl)propyl]urea]?
Answer: inhibition in vivo at 10 mg/kg (TNF-α production): 94.1%; melting point: 122.7 to 123.7 °C

Question: For `COCCN(CCC12CC3CC(CC(C3)C1)C2)C(=O)NCCCc1ccncc1` [Compound No. 1-18, 1-[2-(1-Adamantyl)ethyl]-1-(2-methoxyethyl)-3-[3-(4-pyridyl)propyl]urea], which inhibition in vivo at 10 mg/kg (TNF-α production) is on record?
Answer: 78.9%

Question: And the melting point?
Answer: 101.5 to 104.5 °C

Question: With `O=C(NCCCc1ccncc1)N(CCC12CC3CC(CC(C3)C1)C2)CC1CC1` [Compound No. 1-22, 1-[2-(1-Adamantyl)ethyl]-1-cyclopropylmethyl-3-[3-(4-pyridyl)propyl]urea] as the compound, how does the inhibition in vivo at 10 mg/kg (TNF-α production) read?
Answer: 87%

Question: And the melting point?
Answer: 123 to 125 °C

Question: For `O=C(NCCCc1ccncc1)N(CCC(F)(F)F)CCC12CC3CC(CC(C3)C1)C2` [Compound No. 1-24, 1-[2-(1-Adamantyl)ethyl]-3-[3-(4-pyridyl)propyl]-1-(3,3,33-trifluoropropyl)urea], which inhibition in vivo at 10 mg/kg (TNF-α production) is on record?
Answer: 95.8%

Question: And the melting point?
Answer: 107.5 to 109 °C

Question: Which inhibition in vivo at 10 mg/kg (TNF-α production) does the source give for `CC=CCN(CCC12CC3CC(CC(C3)C1)C2)C(=O)NCCCc1ccncc1` [Compound No. 1-25, 1-[2-(1-Adamantyl)ethyl]1-(2-butenyl)-3-[3-(4-pyridyl)propyl]urea] here?
Answer: 89%

Question: And the melting point?
Answer: 89.5 to 93.5 °C

Question: For `O=C(NCCCc1ccncc1)N(CCC12CC3CC(CC(C3)C1)C2)Cc1cccs1` [Compound No. 1-27, 1-[2-(1-Adamantyl)ethyl]-3-[3-(4-pyridyl)propyl]-1-(2-thienyl)methylurea], which inhibition in vivo at 10 mg/kg (TNF-α production) is on record?
Answer: 81.3%

Question: What about the melting point of the same compound?
Answer: 142.5 to 144.5 °C

Question: What does the source list for `CC(C)=CCN(CCC12CC3CC(CC(C3)C1)C2)C(=O)NCCCc1ccncc1` [Compound No. 1-31, 1-[2-(1-Adamantyl)ethyl]-1-(3-methyl-2-butenyl)-3-[3-(4-pyridyl)propyl]urea]?
Answer: inhibition in vivo at 10 mg/kg (TNF-α production): 92.6%; melting point: 93 to 96 °C

Question: Which results are given for `CCCCCCCCCCN(CCC12CC3CC(CC(C3)C1)C2)C(=O)NCCCc1ccncc1` [Compound No. 1-32, 1-[2-(1-Adamantyl)ethyl]-1-decyl-3-[3-(4-pyridyl)propyl]urea]?
Answer: inhibition in vivo at 10 mg/kg (TNF-α production): 62.4%; melting point: 75 to 76 °C

Question: For `O=C(NCCCc1ccncc1)N(CC=Cc1ccccc1)CCC12CC3CC(CC(C3)C1)C2` [Compound No. 1-34, 1-[2-(1-Adamantyl)ethyl]-1-cinnamyl-3-[3-(4-pyridyl)propyl]urea], which inhibition in vivo at 10 mg/kg (TNF-α production) is on record?
Answer: 70.8%

Question: What about the melting point of the same compound?
Answer: 130 to 134.5 °C

Question: For `O=C(NCCCc1ccncc1)N(CCC12CC3CC(CC(C3)C1)C2)Cc1ccco1` [Compound No. 1-42, 1-[2-(1-Adamantyl)ethyl]-1-furfuryl-3-[3-(4-pyridyl)propyl]urea], which inhibition in vivo at 10 mg/kg (TNF-α production) is on record?
Answer: 86.7%

Question: What about the melting point of the same compound?
Answer: 128 to 130 °C

Question: Which inhibition in vivo at 10 mg/kg (TNF-α production) does the source give for `O=C(NCCCc1ccncc1)N(CCC12CC3CC(CC(C3)C1)C2)Cc1ccccc1` [Compound No. 1-43, 1-[2-(1-Adamantyl)ethyl]-1-benzyl-3-[3-(4-pyridyl)propyl]urea] here?
Answer: 67.6%

Question: What about the melting point of the same compound?
Answer: 130.5 to 135 °C

Question: With `CCCCCNC(=O)N(CCCc1ccncc1)CCC12CC3CC(CC(C3)C1)C2` [Compound No. 1-66, 1-[2-(1-Adamantyl)ethyl]-3-pentyl-1-[3-(4-pyridyl)propyl]urea] as the compound, how does the inhibition in vivo at 10 mg/kg (TNF-α production) read?
Answer: 79.4%

Question: And the melting point?
Answer: 47 to 50 °C

Question: What does the source list for `CC(C)N(CCC12CC3CC(CC(C3)C1)C2)C(=O)NCCCc1ccncc1` [Compound No. 1-68, 1-[2-(1-Adamantyl)ethyl]-1-isopropyl-3-[3-(4-pyridyl)propyl]urea]?
Answer: inhibition in vivo at 10 mg/kg (TNF-α production): 79%; melting point: 132 to 134 °C

Question: Which inhibition in vivo at 3 mg/kg (TNF-α production) does the source give for `CCCCCN(CCC12CC3CC(CC(C3)C1)C2)C(=O)CSCCc1ccncc1` [Compound No. 2-18, 2-[2-(4-Pyridyl)ethylthio]acetic acid N-[2-(1-adamantyl)ethyl]-N-pentylamide] here?
Answer: 87.3%

Question: With `CCCCCN(CCC12CC3CC(CC(C3)C1)C2)C(=O)CCCCCc1ccncc1` [Compound No. 2-20, 6-(4-Pyridyl)caproic acid N-[2-(1-adamantyl)ethyl]-N-pentylamide] as the compound, how does the inhibition in vivo at 3 mg/kg (TNF-α production) read?
Answer: 82.1%

Question: Which inhibition in vivo at 3 mg/kg (TNF-α production) does the source give for `CCCCCN(CCC12CC3CC(CC(C3)C1)C2)C(=O)C(N)CSCc1ccncc1` (stereo not drawn) [Compound No. 3-4, 2-Amino-3-(4-pyridylmethylthio)propionic acid N-[2-(1-adamantyl)ethyl]-N-pentylamide dihydrochloride] here?
Answer: 76.1%

Question: For `CCCCCN(CCC12CC3CC(CC(C3)C1)C2)C(=O)NCCCc1cc[n+](C)cc1` [Compound No. 4-1, 4-[3-[3-[2-(1-Adamantyl)ethyl]-3-pentylureido]propyl]-1-methylpyridinium iodide], which inhibition in vivo at 3 mg/kg (TNF-α production) is on record?
Answer: 42.8%

Question: With `CCCN(CCCC12CC3CC(CC(C3)C1)C2)C(=O)OCCCc1ccncc1` [Compound No. 5-3, 3-(4-Pyridyl)propyl N [3-(1-adamantyl)propyl]-N-propylcarbamate] as the compound, how does the “Inhibition rate (%) of TNF-α production” value (TNF-α production) read?
Answer: 49.4%

Question: Which inhibition in vivo at 3 mg/kg (TNF-α production) does the source give for `O=C(OCCCc1ccncc1)N(CCC(F)(F)F)CCC12CC3CC(CC(C3)C1)C2` [Compound No. 5-4, 3-(4-Pyridyl)propyl N-[2-(1-adamantyl)ethyl]-N-(3,3,3-trifluoropropyl)carbamate] here?
Answer: 62.6%

Question: With `CN(CCN(CCC12CC3CC(CC(C3)C1)C2)C(=O)OCCCc1ccncc1)C(=O)OC(C)(C)C` [Compound No. 5-5, 3-(4-Pyridyl)propyl N-[2-(1-adamantyl)ethyl]-N-[2-[N′-(tbutoxycarbonyl)-N′-methylamino]ethyl]carbamate] as the compound, how does the “Inhibition rate (%) of TNF-α production” value (TNF-α production) read?
Answer: 42.8%

Question: Which inhibition in vivo at 3 mg/kg (TNF-α production) does the source give for `CCCCCN(CCC12CC3CC(CC(C3)C1)C2)C(=O)OCC(C)Cc1ccncc1` (stereo not drawn) [Compound No. 5-6, 2-Methyl-3-(4-pyridyl)propyl N-[2-(1-adamantyl)ethyl]-N-pentylcarbamate] here?
Answer: 41.7%

Question: For `O=C1CCN(CCC23CC4CC(CC(C4)C2)C3)C(=O)N1CCCc1ccncc1` [Compound No. 6-1, 1-[2-(1-Adamantyl)ethyl]-3-[3-(4-pyridyl)propyl]hexahydro-2,4-pyrimidinedione hydrochloride], which inhibition in vivo at 10 mg/kg (TNF-α production) is on record?
Answer: 50.5%

Question: Which inhibition in vivo at 10 mg/kg (TNF-α production) does the source give for `CCCCCN(CCC12CC3CC(CC(C3)C1)C2)C(=S)NCCCc1ccncc1` [Compound No. 7-1, 1-[2-(1-Adamantyl)ethyl]-1-pentyl-3-[3-(4-pyridyl)propyl]thiourea] here?
Answer: 71.5%

Question: With `CN(CCN(CCC12CC3CC(CC(C3)C1)C2)C(=O)CCCCc1ccncc1)C(=O)OCc1ccccc1` [Compound No. 10-16, 5-(4-Pyridyl)valeric acid N-[2-(1-adamantyl)ethyl]-N-[2-(N′-benzyloxycarbonyl-N′-methylamino)ethyl]amide] as the compound, how does the “Inhibition rate (%) of TNF-α production” value (TNF-α production) read?
Answer: 62.8%

Question: With `CN(CCN(CCC12CC3CC(CC(C3)C1)C2)C(=O)CCCCc1ccncc1)C(=O)CC(C)(C)C` [Compound No. 10-17, 5-(4-Pyridyl)valeric acid N-[2-(1-adamantyl)ethyl]-N-[2-[N′-(3,3-dimethylbutyryl)-N′-methylamino]ethyl]amide] as the compound, how does the “Inhibition rate (%) of TNF-α production” value (TNF-α production) read?
Answer: 53.8%

Question: Which inhibition in vivo at 10 mg/kg (TNF-α production) does the source give for `CN(CCCc1ccncc1)C(=O)N(C)CCC12CC3CC(CC(C3)C1)C2` [Compound No. 11-1, [2-(1-Adamantyl)ethyl]-1,3-dimethyl-3-[3-(4-pyridyl)propyl]urea] here?
Answer: 50.8%

Question: For `CCCCCN(CCC12CC3CC(CC(C3)C1)C2)C(=O)NCCC(O)c1ccncc1` (stereo not drawn) [Compound No. 14-1, 1-[2-(1-Adamantyl)ethyl]-3-[3-hydroxy-3-(4-pyridyl)propyl]-1-pentylurea], which inhibition in vivo at 3 mg/kg (TNF-α production) is on record?
Answer: 36.3%

Question: For `CCCCCN(CCC12CC3CC(CC(C3)C1)C2)C(=O)NCCCc1cc[n+]([O-])cc1` [Compound No. 16-1, 4-[3-[3-[2-(1-Adamantyl)ethyl]-3-pentylureido]propyl]pyridine N-oxide], which inhibition in vivo at 3 mg/kg (TNF-α production) is on record?
Answer: 74.3%

Question: With `CCCCCN(CCC12CC3CC(CC(C3)C1)C2)C(=O)CNCCc1ccncc1` [Compound No. 18-1, 2-[2-(4-Pyridyl)ethylamino]acetic acid N-[2-(1-adamantyl)ethyl]1-N-pentylamide] as the compound, how does the “Inhibition rate (%) of TNF-α production” value (TNF-α production) read?
Answer: 55.7%

Question: Which inhibition in vivo at 3 mg/kg (TNF-α production) does the source give for `CCCCCN(CCC12CC3CC(CC(C3)C1)C2)C(=O)COCCc1ccncc1` [Compound No. 18-3, 2-[2-(4-Pyridyl)ethoxy]acetic acid N-[2-(1-adamantyl)ethyl]-N-pentylamide] here?
Answer: 56.6%

Question: With `CCCCCN(CCC12CC3CC(CC(C3)C1)C2)C(=O)NCCCc1ccnc(C)c1` [Compound No. 27-1, 1-[2-(1-Adamantyl)ethyl]-3-[3-[4-(2-methyl)pyridyl]propyl]-1-pentylurea] as the compound, how does the “Inhibition rate (%) of TNF-α production” value (TNF-α production) read?
Answer: 68.6%

Question: With `CCCCCN(CCC12CC3CC(CC(C3)C1)C2)C(=O)NCCC(=O)c1ccncc1` [Compound No. 31-1, 1-[2-(1-Adamantyl)ethyl]-3-[3-oxo-3-(4-pyridyl)propyl]-1-pentylurea] as the compound, how does the inhibition in vivo at 3 mg/kg (TNF-α production) read?
Answer: 46.8%
